The record followed here is patent publication US10632210B2, “Peptidomimetic compounds and antibody-drug conjugates thereof” (Genentech, Inc., priority 2013, dated 2020).

One may read the melting point as the temperature, or range, at which the solid turns liquid. `COc1cc2c(cc1OCCCCCC(=O)N1C[C@@H](CCl)c3c1cc(OP(=O)(O)O)c1ccccc31)N(C(=O)OCc1ccc(NC(=O)[C@H](CCCCN)NC(=O)C3(C(=O)NCCCCCN4C(=O)C=CC4=O)CCC3)cc1)C(O)[C@@H]1CCCN1C2=O` (stereo partly shown): the melting point was 98 °C (dec.).
